Data on one molecule can be found in article PMC9785169, “New Insights Regarding Hemin Inhibition of the Purified Rat Brain 2-Oxoglutarate Carrier and Relationships with Mitochondrial Dysfunction” (Journal of Clinical Medicine, 2022).

This test concerns the target T1, 2-oxoglutarate/malate carrier (OGC) (Rattus norvegicus, UniProt P97700).
T1 construct: gene Slc25a11; OGC purified from rat brain mitochondria, reconstituted into proteoliposomes
T1 sequence (P97700 2-314): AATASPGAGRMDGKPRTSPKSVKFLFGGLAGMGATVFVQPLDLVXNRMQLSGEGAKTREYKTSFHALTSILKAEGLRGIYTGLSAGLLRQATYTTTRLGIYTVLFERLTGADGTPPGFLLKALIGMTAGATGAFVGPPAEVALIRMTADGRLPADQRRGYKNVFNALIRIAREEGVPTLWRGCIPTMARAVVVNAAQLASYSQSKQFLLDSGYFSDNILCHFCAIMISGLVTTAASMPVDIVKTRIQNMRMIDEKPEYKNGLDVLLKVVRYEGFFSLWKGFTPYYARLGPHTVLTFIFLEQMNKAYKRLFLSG
Briefly: […]malate uptake inhibition in proteoliposomes reconstituted with purified OGC, internal hemin. The test is classed as biochemical.

One may read the IC50 as the concentration that inhibits the measured activity by half. `C=CC1=C(C)C2=Cc3c(C=C)c(C)c4[n]3[Fe]([Cl])[n]3c(c(C)c(CCC(=O)O)c3=CC3=NC(=C4)C(C)=C3CCC(=O)O)=CC1=N2` [hemin] had an IC50 of 82 ± 7 nM.
